Measured values: US11225462B2, “Crystal forms of oxypyridine amide derivative and preparation method therefor” (JIANGSU HENGRUI MEDICINE CO., LTD., priority 2018, dated 2022)

Key:
[1] = DVS (dynamic vapor sorption) hygroscopicity characterization; format: physicochemical; details: for mass increase under normal conditions: 25° C. and 60% RH; for hygroscopicity according to guidelines for drug hygroscopicity test in China Pharmacopoeia (2015 edition) / mass increase as the humidity increases: 25° C., 10% RH to 80% RH; for mass increase under accelerated test conditions: 70% RH; for mass increase under extreme conditions: 90% RH; for desorption process and adsorption process of the sample: humidity change from 0% to 95%
Protocol: DVS refers to dynamic vapor sorption and is determined using SMS DVS Advantage at 25° C., with the humidity change of 50%-95%-0%-95%-50% and the stepping of 10% (5% for the last step) (the specific humidity range is determined in accordance with the corresponding plot, and the methods listed herein are those most commonly used), and the standard for determination is as follow: dm/dt is not more than 0.02%, and Tmax is not more than 360 min.

[2] = Influencing factor experiments (light, high temperature, high humidity, 30 days); format: physicochemical; details: for Crystal form: day 5 to day 10, time not clear
Protocol: Crystal forms A, B, D and F of the compound of formula (I) were spread and left open to the air, and under conditions of high temperature (40° C. and 60° C.), light (4500 Lux), high humidity (RH 75% and RH 90%), the stability thereof were investigated for a period of 30 days.

Q: Which “mass increase under normal conditions” value [1] does the source give for `CCC(=O)c1ccc(Cl)cc1-c1cc(=O)n([C@@H](CCOC(C)(C)C)C(=O)Nc2ccc(C(=O)O)cc2)cc1OC` [Crystal form B, (S)-4-(4-(tert-butoxy)-2-(4-(5-chloro-2-propionylphenyl)-5-methoxy-2-oxopyridin-1(2H)-yl)butanamido)benzoic acid] here?
A: about 1.155%

Q: And the “hygroscopicity according to guidelines for drug hygroscopicity test in China Pharmacopoeia (2015 edition)” value [1]?
A: slightly hygroscopic (less than 2% but not less than 0.2%)

Q: And the “mass increase as the humidity increases” value [1]?
A: about 1.968%

Q: What about the “mass increase under accelerated test conditions” value [1] of the same compound?
A: about 1.530%

Q: And the “mass increase under extreme conditions” value [1]?
A: about 3.963%

Q: And the “crystal form before and after DVS detection (XRPD comparison)” value [1]?
A: change to crystal form A

Q: What about the “desorption process and adsorption process of the sample” value [1] of the same compound?
A: basically coincide

Q: And the “% Purity” value ([2]; 40° C., 15 days)?
A: 98.99%

Q: What about the Color and trait ([2]; 40° C., 15 days) of the same compound?
A: Light yellow

Q: And the “% Purity” value ([2]; 40° C., 30 days)?
A: 98.57%

Q: And the Color and trait ([2]; 40° C., 30 days)?
A: Light yellow

Q: And the “% Purity” value ([2]; 60° C., 15 days)?
A: 99.10%

Q: And the Color and trait ([2]; 60° C., 15 days)?
A: Light yellow

Q: And the “% Purity” value ([2]; 60° C., 30 days)?
A: 98.60%

Q: What about the Color and trait ([2]; 60° C., 30 days) of the same compound?
A: Light yellow

Q: What about the “% Purity” value ([2]; 4500 Lux, 15 days) of the same compound?
A: 99.01%

Q: What about the Color and trait ([2]; 4500 Lux, 15 days) of the same compound?
A: Yellow solid

Q: What about the “% Purity” value ([2]; 4500 Lux, 30 days) of the same compound?
A: 98.71%

Q: And the Color and trait ([2]; 4500 Lux, 30 days)?
A: Yellow solid

Q: And the “% Purity” value ([2]; Initial condition, day 0)?
A: 99.65%

Q: What about the Color and trait ([2]; Initial condition, day 0) of the same compound?
A: Light yellow

Q: What about the “% Purity” value ([2]; RH 75%, 15 days) of the same compound?
A: 99.62%

Q: What about the “% Weight gain” value ([2]; RH 75%, 15 days) of the same compound?
A: 6.76%

Q: What about the Color and trait ([2]; RH 75%, 15 days) of the same compound?
A: Light yellow

Q: What about the “% Purity” value ([2]; RH 75%, 30 days) of the same compound?
A: 99.59%

Q: And the “% Weight gain” value ([2]; RH 75%, 30 days)?
A: 8.34%

Q: What about the Color and trait ([2]; RH 75%, 30 days) of the same compound?
A: Light yellow

Q: And the “% Purity” value ([2]; RH 90%, 15 days)?
A: 99.64%

Q: And the “% Weight gain” value ([2]; RH 90%, 15 days)?
A: 14.89%

Q: And the Color and trait ([2]; RH 90%, 15 days)?
A: Light yellow

Q: And the “% Purity” value ([2]; RH 90%, 30 days)?
A: 99.56%

Q: And the “% Weight gain” value ([2]; RH 90%, 30 days)?
A: 19.11%

Q: And the Color and trait ([2]; RH 90%, 30 days)?
A: Light yellow

Q: Which results are given for `CCC(=O)c1ccc(Cl)cc1-c1cc(=O)n([C@@H](CCOC(C)(C)C)C(=O)Nc2ccc(C(=O)O)cc2)cc1OC` [Crystal form D, (S)-4-(4-(tert-butoxy)-2-(4-(5-chloro-2-propionylphenyl)-5-methoxy-2-oxopyridin-1(2H)-yl)butanamido)benzoic acid]?
A: mass increase under normal conditions [1]: about 2.143%; hygroscopicity according to guidelines for drug hygroscopicity test in China Pharmacopoeia (2015 edition) [1]: hygroscopic (less than 15% but not less than 2%); mass increase as the humidity increases [1]: about 2.420%; mass increase under accelerated test conditions [1]: about 2.494%; mass increase under extreme conditions [1]: about 3.422%; crystal form before and after DVS detection (XRPD comparison) [1]: crystallinity of the crystal form become worse; desorption process and adsorption process of the sample [1]: do not coincide; % Purity ([2]; 40° C., 5 days): 99.53%; Color and trait ([2]; 40° C., 5 days): Off-white; % Purity ([2]; 40° C., 10 days): 99.02%; Color and trait ([2]; 40° C., 10 days): Off-white; % Purity ([2]; 40° C., 30 days): 98.95%; Color and trait ([2]; 40° C., 30 days): Off-white; Crystal form ([2]; 40° C.): Amor-; % Purity ([2]; 60° C., 5 days): 99.40%; Color and trait ([2]; 60° C., 5 days): Off-white; % Purity ([2]; 60° C., 10 days): 99.31%; Color and trait ([2]; 60° C., 10 days): Off-white; % Purity ([2]; 60° C., 30 days): 99.09%; Color and trait ([2]; 60° C., 30 days): Off-white; Crystal form ([2]; 60° C.): Amor-; % Purity ([2]; 4500 Lux, 5 days): 99.58%; Color and trait ([2]; 4500 Lux, 5 days): Off-white; % Purity ([2]; 4500 Lux, 10 days): 99.57%; Color and trait ([2]; 4500 Lux, 10 days): Off-white; % Purity ([2]; 4500 Lux, 30 days): 99.26%; Color and trait ([2]; 4500 Lux, 30 days): Off-white; Crystal form ([2]; 4500 Lux): Amor-; % Purity ([2]; Initial condition, day 0): 99.59%; Color and trait ([2]; Initial condition, day 0): Off-white; % Purity ([2]; RH 75%, 5 days): 99.56%; % Weight gain ([2]; RH 75%, 5 days): 5.30%; Color and trait ([2]; RH 75%, 5 days): Off-white; % Purity ([2]; RH 75%, 10 days): 99.53%; % Weight gain ([2]; RH 75%, 10 days): 5.48%; Color and trait ([2]; RH 75%, 10 days): Off-white; % Purity ([2]; RH 75%, 30 days): 99.55%; % Weight gain ([2]; RH 75%, 30 days): 5.56%; Color and trait ([2]; RH 75%, 30 days): Off-white; Crystal form ([2]; RH 75%): Amor-; % Purity ([2]; RH 90%, 5 days): 99.57%; % Weight gain ([2]; RH 90%, 5 days): 7.45%; Color and trait ([2]; RH 90%, 5 days): Off-white; % Purity ([2]; RH 90%, 10 days): 99.54%; % Weight gain ([2]; RH 90%, 10 days): 8.67%; Color and trait ([2]; RH 90%, 10 days): Off-white; % Purity ([2]; RH 90%, 30 days): 99.55%; % Weight gain ([2]; RH 90%, 30 days): 9.53%; Color and trait ([2]; RH 90%, 30 days): Off-white; Crystal form ([2]; RH 90%): Amor-
